Patent US7517874B2 (priority 2007, dated 2009)
Like-named read-outs stand apart in the source and are kept apart here.

Columns and labels:
[1] = biological target: human CB1 receptor (hCB1) (Homo sapiens, UniProt P21554); assay: cell-based; format: cell-based
In short: (§1)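 First, cells in IBMX-containing HEPES-buffered HBSS are raised to elevated cAMP with 2-8 μM NKH-477 for 30 min. Data are normalised to the forskolin and forskolin + 1 μM CP55,940 controls.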

[2] = biological target: T1, rat CB2 receptor (rCB2) (Rattus norvegicus, UniProt Q9QZN9); assay: cell-based; format: cell-based; conditions: for +/− RCB2: agonist or inverse agonist at rCB2
T1 sequence (Q9QZN9 1-360): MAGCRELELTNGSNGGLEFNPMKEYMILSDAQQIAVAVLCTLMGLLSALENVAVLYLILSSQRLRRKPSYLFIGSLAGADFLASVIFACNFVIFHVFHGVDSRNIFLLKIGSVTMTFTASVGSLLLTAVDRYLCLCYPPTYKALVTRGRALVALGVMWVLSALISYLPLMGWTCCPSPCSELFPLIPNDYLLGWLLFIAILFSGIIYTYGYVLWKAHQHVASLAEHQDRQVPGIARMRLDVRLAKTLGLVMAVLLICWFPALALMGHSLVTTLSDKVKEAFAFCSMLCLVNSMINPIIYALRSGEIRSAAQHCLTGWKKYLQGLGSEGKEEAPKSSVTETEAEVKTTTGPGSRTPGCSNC
In short: as §1

[3] = groups >100 nM-10 μM and >10 μM, cAMP, CHO-K1 hCB1, read-out: EC50 HCB1

human CB1 receptor (hCB1), sequence (P21554 whole entry): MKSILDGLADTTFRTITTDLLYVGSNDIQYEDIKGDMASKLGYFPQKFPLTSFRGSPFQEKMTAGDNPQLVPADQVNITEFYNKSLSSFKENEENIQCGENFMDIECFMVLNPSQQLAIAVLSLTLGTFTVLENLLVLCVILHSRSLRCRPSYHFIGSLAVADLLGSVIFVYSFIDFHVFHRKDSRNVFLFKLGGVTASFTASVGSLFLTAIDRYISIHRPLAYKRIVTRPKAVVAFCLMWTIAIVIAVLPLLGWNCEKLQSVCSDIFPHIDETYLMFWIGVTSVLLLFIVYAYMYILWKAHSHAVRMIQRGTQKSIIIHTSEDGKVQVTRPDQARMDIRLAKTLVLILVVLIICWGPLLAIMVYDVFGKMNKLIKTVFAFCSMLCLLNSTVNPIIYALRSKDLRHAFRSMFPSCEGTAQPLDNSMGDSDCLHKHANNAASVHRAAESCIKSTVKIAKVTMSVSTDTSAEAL

Row | Structure (SMILES) | EC50 [1] | +/− RCB2 [2] | EC50 [2] | EC50 [1, 3]
1 | CCN1CCn2c(-c3ccccc3)nc(C(=O)Nc3ccccc3)c2C1 [Compound 152, 7-ethyl-N,3-diphenyl-5,6,7,8-tetrahydroimidazo[1,5-a]pyrazine-1-carboxamide] | > 10000 nM | − |  | 
2 | CNC(=O)[C@@H](NC(=O)c1nc(-c2ccc(F)cc2)n2c1CNCC2)C(C)(C)C [Compound 6, (S)-N-(3,3-dimethyl-1-(methylamino)-1-oxobutan-2-yl)-3-(4-fluorophenyl)-5,6,7,8-tetrahydroimidazo[1,5-a]pyrazine-1-carboxamide] | > 10000 nM |  | > 10 µM | 
3 | CNC(=O)[C@@H](NC(=O)c1nc(CC(C)C)n2c1CN(C)CC2)C(C)(C)C [Compound 306, (S)-N-(3,3-dimethyl-1-(methylamino)-1-oxobutan-2-yl)-3-isobutyl-7-methyl-5,6,7,8-tetrahydroimidazo[1,5-a]pyrazine-1-carboxamide] | > 10000 nM | + |  | 
4 | CNC(=O)[C@@H](NC(=O)c1nc(-c2cc(C)ccc2Cl)n2c1CN(C)CCC2)C(C)(C)C [Compound 335, (S)-3-(2-chloro-5-methylphenyl)-N-(3,3-dimethyl-1-(methylamino)-1-oxobutan-2-yl)-8-methyl-6,7,8,9-tetrahydro-5H-imidazo[1,5-a][1,4]diazepine-1-carboxamide] | > 10000 nM |  | > 10 µM | 
5 | CNC(=O)[C@H](CC(C)C)NC(=O)c1nc(-c2ccccc2)n2c1CN(C)CC2 [Compound 275, (S)-7-methyl-N-(4-methyl-1-(methylamino)-1-oxopentan-2-yl)-3-phenyl-5,6,7,8-tetrahydroimidazo[1,5-a]pyrazine-1-carboxamide] | > 10000 nM | + |  | 
6 | CC12CCC(C1)C(C)(C)C2NC(=O)c1nc(-c2ccccc2)n2c1CN(C(=O)c1ccccc1)CC2 (stereo not drawn) [Compound 120, 7-benzoyl-3-phenyl-N-(1,3,3-trimethylbicyclo[2.2.1]heptan-2-yl)-5,6,7,8-tetrahydroimidazo[1,5-a]pyrazine-1-carboxamide] | > 10000 nM | + |  | 
7 | CNC(=O)[C@@H](NC(=O)c1nc(-c2ccc(OC)cc2F)n2c1CN(C)CCC2)C(C)(C)C [Compound 358] | > 10000 nM | − |  | 
8 | CCS(=O)(=O)N1CCn2c(-c3ccccc3)nc(C(=O)Nc3ccccc3)c2C1 [Compound 114, 7-(ethylsulfonyl)-N,3-diphenyl-5,6,7,8-tetrahydroimidazo[1,5-a]pyrazine-1-carboxamide] |  | − |  | > 10000 nM
9 | CNC(=O)[C@@H](NC(=O)c1nc(-c2ccccc2)n2c1CN(CC(C)C)CCC2)C(C)(C)C [Compound 320, (S)-N-(3,3-dimethyl-1-(methylamino)-1-oxobutan-2-yl)-8-isobutyl-3-phenyl-6,7,8,9-tetrahydro-5H-imidazo[1,5-a][1,4]diazepine-1-carboxamide] | > 10000 nM | − |  | 
10 | CNC(=O)[C@@H](NC(=O)c1nc(-c2cscc2C)n2c1CN(C)CCC2)C(C)(C)C [Compound 352, (S)-N-(3,3-dimethyl-1-(methylamino)-1-oxobutan-2-yl)-8-methyl-3-(4-methylthiophen-3-yl)-6,7,8,9-tetrahydro-5H-imidazo[1,5-a][1,4]diazepine-1-carboxamide] | > 10000 nM | + |  | 
11 | CC(C)(C)[C@@H](CO)NC(=O)c1nc(-c2ccc(Cl)cc2)n2c1CN(CCO)CC2 [Compound 162, (S)-3-(4-chlorophenyl)-N-(1-hydroxy-3,3-dimethylbutan-2-yl)-7-(2-hydroxyethyl)-5,6,7,8-tetrahydroimidazo[1,5-a]pyrazine-1-carboxamide] | > 10000 nM | − |  | 
12 | O=C(NCC1CCOCC1)c1nc(-c2ccccc2)n2c1CN(C(=O)C1CC1)CC2 [Compound 134, 7-(cyclopropanecarbonyl)-3-phenyl-N-((tetrahydro-2H-pyran-4-yl)methyl)-5,6,7,8-tetrahydroimidazo[1,5-a]pyrazine-1-carboxamide] |  | − |  | > 10000 nM
